According to patent publication US20230242552A1, “Nitrogen-Containing Heterocyclic Compound, Preparation Method Therefor and Use Thereof” (280 Bio, Inc, priority 2022, published 2023):

Experiments:
Conditions in all cases: CellTiter Glo, 120 hours incubation
[1] = test system: AGS (gastric cancer cell line with KRAS G12D mutation); experiment: Proliferation inhibition measured by CTG, AGS; format: cell-based
Protocol: (§1) NCI-H358 is a human non-small cell lung cancer cell line with KRAS G12C mutation; AGS is a gastric cancer cell line with KRAS G12D mutation; SW480 is a colon cancer cell lines with KRAS G12V mutation; A375 is a wild type malignant melanoma cell line. The proliferation inhibitory effect of the compounds on various mutations was evaluated by determining the proliferation inhibitory activity of the compounds on these cell lines.
(§2) The assay was conducted on either 384-well plates or 96-well plates. The procedures are as follows:
(§3) The cell suspensions were added to 384- or 96-well plates (384-well plate: 40 μL; 96-well plate: 100 μL) except for peripheral wells. The plates were incubated in a carbon dioxide incubator overnight. Prepared compounds (10 concentration gradients by serial 3-fold dilution) were added to the wells. The cell plates were incubated in a carbon dioxide incubator for 120 hours. CellTiter Glo reagent (384 well plate: 25 μL; 96 well plate: 100 μL) was added to the 384- or 96-well plates. The plates were shaken for 10 minutes away from light, and incubated for 10 minutes. The plates were read by EnVision system. Inhibition curves were plotted using XLFit and IC50 values were calculated. “IC50>10 μM” is denoted by “*”, “10 μM≥IC50>1 μM” is denoted by […] is denoted by “***”, “---” means no data.

[2] = test system: SW480 (colon cancer cell lines with KRAS G12V mutation); experiment: Proliferation inhibition measured by CTG, SW480; format: cell-based
Protocol: as §1, §2, §3

[3] = test system: A375 (wild type malignant melanoma cell line); experiment: Proliferation inhibition measured by CTG, A375; format: cell-based
Protocol: as §1, §2, §3

[4] = test system: NCI-H358 (KRAS G12C mutation); experiment: Proliferation inhibition measured by CTG, NCI-H358; format: cell-based, human
Protocol: as §1, §2, §3

SMILES	IC50 [1]	IC50 [2]	IC50 ([3]; Homo sapiens, A-375, 120 h)	IC50 ([4]; Homo sapiens, NCI-H358, 120 h)	IC50 [3]	IC50 [4]	IC50 ([1]; 120 h)	IC50 ([2]; Homo sapiens, SW480, 120 h)
CC1Cc2cncc(F)c2CN1c1nc(OC[C@@H]2CCCN2C)nc2c1CCN(c1cccc3cccc(Cl)c13)C2 (single isomer, unassigned) [Compound 4-1]	≤ 1 µM	1 to 10 µM	1 to 10 µM	1 to 10 µM	–	–	–	–
CC1Cc2cncc(F)c2CN1c1nc(OC[C@@H]2CCCN2C)nc2c1CCN(c1cccc3cccc(Cl)c13)C2 (single isomer, unassigned) [Compound 4-2]	≤ 1 µM	≤ 1 µM	–	–	≤ 1 µM	≤ 1 µM	–	–
CC1Cc2cncc(F)c2CN1c1nc(OC[C@@H]2CCCN2C)nc2c1CO[C@H](c1cccc3cccc(Cl)c13)C2 (single isomer, unassigned) [Compound 11-1]	1 to 10 µM	–	–	–	1 to 10 µM	1 to 10 µM	–	–
CC1Cc2cncc(F)c2CN1c1nc(OC[C@@H]2CCCN2C)nc2c1CO[C@H](c1cccc3cccc(Cl)c13)C2 (single isomer, unassigned) [Compound 11-2]	≤ 1 µM	–	–	–	1 to 10 µM	1 to 10 µM	–	–
CN1CCC[C@H]1COc1nc2c(c(N3CCc4cnccc4C3)n1)CCN(c1cccc3cccc(Cl)c13)C2 [Compound 1]	–	–	≤ 1 µM	≤ 1 µM	–	–	–	–
COc1cc2c(cn1)CCN(c1nc(OC[C@@H]3CCCN3C)nc3c1CCN(c1cccc4cccc(Cl)c14)C3)C2 [Compound 2]	–	–	1 to 10 µM	1 to 10 µM	–	–	1 to 10 µM	–
CC1Cc2cnccc2CN1c1nc(OC[C@@H]2CCCN2C)nc2c1CCN(c1cccc3cccc(Cl)c13)C2 (some centres unmarked) [Compound 3-1]	–	–	1 to 10 µM	1 to 10 µM	–	–	1 to 10 µM	1 to 10 µM
CC1Cc2cnccc2CN1c1nc(OC[C@@H]2CCCN2C)nc2c1CCN(c1cccc3cccc(Cl)c13)C2 (some centres unmarked) [Compound 3-2]	≤ 1 µM	≤ 1 µM	–	–	≤ 1 µM	≤ 1 µM	–	–
CC1Cc2cnccc2CN1c1nc(OC[C@@H]2CCCN2C)nc2c1CCN(c1cccc3cccc(Cl)c13)C2 (some centres unmarked) [Compound 3]	≤ 1 µM	≤ 1 µM	–	–	≤ 1 µM	≤ 1 µM	–	–
CC1Cc2cncc(F)c2CN1c1nc(OC[C@@H]2CCCN2C)nc2c1CCN(c1cccc3cccc(Cl)c13)C2 (some centres unmarked) [Compound 4]	–	–	–	–	–	–	≤ 1 µM	≤ 1 µM
CC1Cc2cncc(F)c2CN1c1nc(OC[C@@H]2CCCN2C)nc2c1CCN(c1cc(O)cc3cccc(Cl)c13)C2 (some centres unmarked) [Compound 5-1]	–	–	≤ 1 µM	≤ 1 µM	–	–	–	–
CC1Cc2cncc(F)c2CN1c1nc(OC[C@@H]2CCCN2C)nc2c1CCN(c1cc(O)cc3cccc(Cl)c13)C2 (some centres unmarked) [Compound 5-2]	–	–	–	–	≤ 1 µM	≤ 1 µM	–	–
CC1Cc2cncc(F)c2CN1c1nc(OC[C@@H]2CCCN2C)nc2c1CCN(c1cc(O)cc3cccc(Cl)c13)C2 (some centres unmarked) [Compound 5]	–	–	–	–	–	–	≤ 1 µM	≤ 1 µM
CC1Cc2cnccc2CN1c1nc(OC[C@@H]2CCCN2C)nc2c1CCN(c1cc(O)cc3cccc(Cl)c13)C2 (some centres unmarked) [Compound 6]	–	–	–	–	–	–	≤ 1 µM	≤ 1 µM
C#Cc1c(F)ccc2cc(O)cc(N3CCc4c(nc(OC[C@@H]5CCCN5C)nc4N4Cc5c(F)cncc5CC4C)C3)c12 (some centres unmarked) [Compound 7]	–	–	1 to 10 µM	1 to 10 µM	–	–	≤ 1 µM	1 to 10 µM
CC1Cc2cncc(F)c2CN1c1nc(OC[C@@H]2CCCCN2C)nc2c1CCN(c1cccc3cccc(Cl)c13)C2 (some centres unmarked) [Compound 9-1]	–	–	≤ 1 µM	≤ 1 µM	–	–	≤ 1 µM	≤ 1 µM
CC1Cc2cncc(F)c2CN1c1nc(OC[C@@H]2CCCCN2C)nc2c1CCN(c1cccc3cccc(Cl)c13)C2 (some centres unmarked) [Compound 9-2]	≤ 1 µM	≤ 1 µM	–	–	≤ 1 µM	≤ 1 µM	–	–

SMILES	IC50 [1]	IC50 [2]	IC50 ([3]; Homo sapiens, A-375, 120 h)	IC50 ([4]; Homo sapiens, NCI-H358, 120 h)	IC50 [3]	IC50 [4]	IC50 ([1]; 120 h)	IC50 ([2]; Homo sapiens, SW480, 120 h)
CC1Cc2cncc(F)c2CN1c1nc(OC[C@@H]2CCCN2C)nc2c1CO[C@H](c1cccc3cccc(Cl)c13)C2 (some centres unmarked) [Compound 11]	–	–	1 to 10 µM	1 to 10 µM	–	–	≤ 1 µM	–
C[C@H]1Cc2cncc(F)c2CN1c1nc(OC[C@@H]2CCCCN2C)nc2c1CCN(c1cccc3cccc(F)c13)C2 [Compound 12]	–	–	≤ 1 µM	≤ 1 µM	–	–	≤ 1 µM	≤ 1 µM
C[C@H]1Cc2cncc(F)c2CN1c1nc(OC[C@@H]2CCCN2C)nc2c1CCN(c1cncc3ccccc13)C2 [Compound 13]	–	–	> 10 µM	1 to 10 µM	–	–	1 to 10 µM	1 to 10 µM
C[C@H]1Cc2cncc(F)c2CN1c1nc(OC[C@@H]2CCCN2C)nc2c1CCN(c1cccc3ncccc13)C2 [Compound 14]	–	–	1 to 10 µM	1 to 10 µM	–	–	1 to 10 µM	1 to 10 µM
C[C@H]1Cc2cncc(F)c2CN1c1nc(OC[C@@H]2CCCN2C)nc2c1CCN(c1cccc3cccc(F)c13)C2 [Compound 15]	–	–	1 to 10 µM	≤ 1 µM	–	–	≤ 1 µM	≤ 1 µM
C[C@H]1Cc2cncc(F)c2CN1c1nc(OC[C@@H]2CCCN2C)nc2c1CCN(c1ccnc3ccccc13)C2 [Compound 16]	–	–	1 to 10 µM	1 to 10 µM	–	–	1 to 10 µM	1 to 10 µM
C[C@H]1Cc2cncc(F)c2CN1c1nc(OC[C@@H]2CCCN2C)nc2c1CCN(c1cccc3cccnc13)C2 [Compound 17]	–	–	1 to 10 µM	≤ 1 µM	–	–	≤ 1 µM	≤ 1 µM
C[C@H]1Cc2cncc(F)c2CN1c1nc(OC[C@@H]2CCCN2C)nc2c1CCN(c1cccc3ccncc13)C2 [Compound 18]	–	–	1 to 10 µM	1 to 10 µM	–	–	1 to 10 µM	1 to 10 µM
C[C@H]1Cc2cncc(F)c2CN1c1nc(OC[C@@H]2CCCN2C)nc2c1CCN(c1cccc3cnccc13)C2 [Compound 19]	–	–	> 10 µM	1 to 10 µM	–	–	1 to 10 µM	1 to 10 µM
C[C@H]1Cc2cncc(F)c2CN1c1nc(OC[C@@H]2CCCN2C)nc2cc(-c3cccc4cccc(Cl)c34)ccc12 [Compound 20]	–	–	1 to 10 µM	1 to 10 µM	–	–	≤ 1 µM	≤ 1 µM
C[C@H]1Cc2cncc(F)c2CN1c1nc(OC[C@@H]2CCCN2C)nc2cc(-c3cccc4cccc(F)c34)ccc12 [Compound 21]	–	–	1 to 10 µM	1 to 10 µM	–	–	≤ 1 µM	1 to 10 µM
C[C@H]1Cc2cncc(F)c2CN1c1nc(OC[C@H]2CCCN2C)nc2c1CCN(c1cccc3cccc(F)c13)C2 [Compound 22]	–	–	1 to 10 µM	≤ 1 µM	–	–	≤ 1 µM	≤ 1 µM
C[C@H]1Cc2cncc(F)c2CN1c1nc(OC[C@H]2CCCCN2C)nc2c1CCN(c1cccc3cccc(F)c13)C2 [Compound 23]	–	–	1 to 10 µM	1 to 10 µM	–	–	≤ 1 µM	1 to 10 µM
C[C@H]1Cc2cncc(F)c2CN1c1nc(OC[C@H]2COCCN2C)nc2c1CCN(c1cccc3cccc(F)c13)C2 [Compound 24]	–	–	> 10 µM	1 to 10 µM	–	–	1 to 10 µM	1 to 10 µM
C[C@@H]1Cc2cncc(F)c2CN1c1nc(OC[C@@H]2CCCN2C)nc2c1CCN(c1cncc3cccc(Cl)c13)C2 [Compound 34]	–	–	≤ 1 µM	–	–	–	≤ 1 µM	–
C[C@@H]1Cc2cncc(F)c2CN1c1nc(OC[C@@H]2CCCN2C)nc2c1CCN(c1cccc3cccc(F)c13)C2 [Compound 35]	–	–	≤ 1 µM	–	–	–	≤ 1 µM	–
C[C@@H]1Cc2cncc(F)c2CN1c1nc(OC[C@@H]2CCCCN2C)nc2c(F)c(-c3cccc4cccc(F)c34)ncc12 [Compound 36]	–	–	–	–	–	–	≤ 1 µM	–
